Experimental data from patent publication EP4667476A1, “NOVEL MITOCHONDRIA-TARGETING COMPOUNDS” (THE CATHOLIC UNIVERSITY OF KOREA INDUSTRY-ACADEMIC …, priority 2023, dated 2024).

Tested on: PD-L1
Experiment: PD-L1 expression in gastric cancer cells by flow cytometer
Assay type: cell-based
Details: AGS; metformin at a concentration 50 times higher than that of JH-001 (FIG. 8)
Experimental: After treating an AGS cell line, a gastric cancer cell line, with JH-001 for each concentration, the expression of PD-L1, an immunocompromised marker, was confirmed using a flow cytometer. […] In addition, metformin, known as a mitochondria-targeting drug, was treated at a concentration 50 times higher than that of JH-001 and the expression level of PD-L1 was confirmed. As a result, it was confirmed that JH-001 according to the present disclosure inhibited PD-L1 expression about 2 times higher than metformin treatment, even though JH-001 was treated at a much lower concentration (FIG. 8).

CN(CCCNC(=O)CCCCC[P+](c1ccccc1)(c1ccccc1)c1ccccc1)C(=N)NC(=N)N [JH-001, (6-((3-(3-carbamimidoyl-1-methylguanidino)propyl)amino)-6-oxohexyl)triphenylphosphonium]
inhibition of PD-L1 expression relative to metformin treatment: about 2 times
